≈ marks a conversion by molar mass, not a printed value. Calls of active or inactive are those of the source. The rule behind the calls is not given here.
Tests used:
Chikungunya virus [1] = test: Antiviral activity against CHIKV 181/25 expressing nLuc-capsid gene infected in human MRC5 cells assessed as reduction in viral replication preincubated with cells for 1 hr followed by viral infection measured after 6 hrs post-infection by Nano-glo luciferase assay; format: functional, organism-based
Polyprotein P1234 = Polyprotein P1234 (Chikungunya virus (strain S27-African prototype) (CHIKV), UniProt Q8JUX6); test: Inhibition of N-terminal 6-His/SUMO-tagged CHIKV 181/25 nsP2 extracted from Escherichia coli Rosetta 2 preincubated for 30 mins followed by ATP addition measured after 1 hr by ADP-Glo assay
Chikungunya virus [2] = test: Inhibition of N-terminal 6-His/SUMO-tagged CHIKV 181/25 nsP2 extracted from Escherichia coli Rosetta 2 at 200 uM preincubated for 30 mins followed by ATP addition measured after 1 hr by ADP-Glo assay relative to control; conditions: time 90.0 min
[3] = Aqueous solubility of compound in PBS at pH 7.4; format: physicochemical
MRC5 = test: Cytotoxicity against human MRC5 cells at 10 to 40 uM by Cell Titer Glo assay; format: toxicity, cell-based; conditions: mrc5, 40 µM, dose 10-40 µM
[4] = 181/25, MRC5, read-out: pEC50 (converted)

Polyprotein P1234, sequence (Q8JUX6 536-1333 limits assumed): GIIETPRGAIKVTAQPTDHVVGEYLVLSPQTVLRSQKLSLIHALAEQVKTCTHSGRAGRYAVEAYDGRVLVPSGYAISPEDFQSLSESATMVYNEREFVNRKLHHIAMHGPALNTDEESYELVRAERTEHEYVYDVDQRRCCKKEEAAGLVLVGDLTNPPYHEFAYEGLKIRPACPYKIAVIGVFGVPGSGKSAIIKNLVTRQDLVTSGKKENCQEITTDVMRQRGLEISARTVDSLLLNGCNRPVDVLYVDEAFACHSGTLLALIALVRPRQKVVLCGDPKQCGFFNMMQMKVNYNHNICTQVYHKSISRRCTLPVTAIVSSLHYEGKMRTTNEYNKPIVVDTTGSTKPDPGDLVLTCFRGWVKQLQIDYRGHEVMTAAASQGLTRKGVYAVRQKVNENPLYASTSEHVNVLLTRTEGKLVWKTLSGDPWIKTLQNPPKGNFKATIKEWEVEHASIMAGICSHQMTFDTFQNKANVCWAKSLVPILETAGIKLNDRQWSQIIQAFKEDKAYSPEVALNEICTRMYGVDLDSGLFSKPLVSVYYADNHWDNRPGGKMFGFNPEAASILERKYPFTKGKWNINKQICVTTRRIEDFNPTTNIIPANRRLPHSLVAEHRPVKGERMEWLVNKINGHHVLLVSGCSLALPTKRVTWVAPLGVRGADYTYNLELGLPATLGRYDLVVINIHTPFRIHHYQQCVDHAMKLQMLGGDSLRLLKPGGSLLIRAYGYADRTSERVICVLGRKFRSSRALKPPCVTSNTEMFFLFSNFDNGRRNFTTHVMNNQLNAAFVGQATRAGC

SMILES	EC50 (Chikungunya virus [1]; [4]) [µM]	IC50 (Polyprotein P1234) [µM]	inhibition (Chikungunya virus [2])	solubility kinetic [3] [µM]	Activity (MRC5)	EC50 (Chikungunya virus [1]; 181/25, MRC5, read-out: EC50) [µM]
COc1cccc(C(=O)NCC2CCOC3(CCN(C(=O)C4(c5ccccc5)CCCC4)CC3)C2)c1 (configuration not stated)	5.01	> 39.8	70%	19 (≈ 9.32 µg/mL)	Non-toxic	
CN(C)S(=O)(=O)N(C)CC1CCOC2(CCN(C(=O)C3(c4ccccc4)CCCC3)CC2)C1 (configuration not stated)	1.58	5.01		160 (≈ 76.4 µg/mL)	Non-toxic	
O=C(N1CCC2(CC1)CC(CNS(=O)(=O)CCCCl)CCO2)C1(c2ccccc2)CCCC1 (configuration not stated)	0.631	2		100 (≈ 49.7 µg/mL)	Non-toxic	
CC(C)NC(=O)NCC1CCOC2(CCN(C(=O)C3(c4ccccc4)CCCC3)CC2)C1 (configuration not stated)	15.8	> 39.8	50%	180 (≈ 79.5 µg/mL)	Non-toxic	
CN(CC1CCOC2(CCN(C(=O)C3(c4ccccc4)CCCC3)CC2)C1)S(C)(=O)=O (configuration not stated)	1.26	3.16		180 (≈ 80.8 µg/mL)	Non-toxic	
COc1ccc(NC(=O)NCC2CCOC3(CCN(C(=O)C4(c5ccccc5)CCCC4)CC3)C2)cc1 (configuration not stated)	3.98	20		10 (≈ 5.06 µg/mL)	Non-toxic	
O=C(N1CCC2(CC1)CC(CNS(=O)(=O)C1CC1)CCO2)C1(c2ccccc2)CCCC1 (configuration not stated)	3.98	20		180 (≈ 82.9 µg/mL)	Non-toxic	
O=C(NCC1CCOC2(CCN(C(=O)C3(c4ccccc4)CCCC3)CC2)C1)c1ccccn1 (configuration not stated)	1.58	> 39.8	90%	190 (≈ 87.7 µg/mL)	Non-toxic	
O=C1CCCN1CC1CCOC2(CCN(C(=O)C3(c4ccccc4)CCCC3)CC2)C1 (configuration not stated)	2.51	> 39.8	90%	200 (≈ 84.9 µg/mL)	Non-toxic	
Cc1cccc(C2(C(=O)N3CCC4(CC3)CC(CNS(=O)(=O)N(C)C)CCO4)CCCC2)c1 (configuration not stated)	3.98	> 39.8	90%		Non-toxic	
CS(=O)(=O)NCC1CCOC2(CCN(C(=O)C3(c4ccccc4)CCCCC3)CC2)C1 (configuration not stated)	15.8	> 39.8	80%	230 (≈ 103 µg/mL)	Non-toxic	
O=C(N1CCC2(CC1)CC(CN1CCCCS1(=O)=O)CCO2)C1(c2ccccc2F)CCCC1 (configuration not stated)	0.251	1		190 (≈ 93.6 µg/mL)	Non-toxic	
O=C(N1CCC2(CC1)CC(CNS(=O)(=O)CCCCCl)CCO2)C1(c2ccccc2)CCCC1 (configuration not stated)	1.26	10		60 (≈ 30.7 µg/mL)	Non-toxic	
O=C(NCC1CCOC2(CCN(C(=O)C3(c4ccccc4)CCCC3)CC2)C1)c1cccnc1 (configuration not stated)	2.51	12.6		90 (≈ 41.5 µg/mL)	Non-toxic	
CN(C)S(=O)(=O)NCC1CCOC2(CCN(C(=O)C3(c4ccccc4F)CCCC3)CC2)C1 (configuration not stated)	5.01	31.6			Non-toxic	
O=C(NCC1CCOC2(CCN(C(=O)C3(c4ccccc4)CCCC3)CC2)C1)C1CCCCC1 (configuration not stated)	2.51	31.6		130 (≈ 60.7 µg/mL)	Non-toxic	
CCN(C)S(=O)(=O)NCC1CCOC2(CCN(C(=O)C3(c4ccccc4)CCCC3)CC2)C1 (configuration not stated)	3.98	15.8		160 (≈ 76.4 µg/mL)	Non-toxic	
O=C(NCC1CCOC2(CCN(C(=O)C3(c4ccccc4)CCCC3)CC2)C1)c1ccccc1 (configuration not stated)	2.51	15.8		70 (≈ 32.2 µg/mL)	Non-toxic	
CCCCCCN(CC1CCOC2(CCN(C(=O)C3(c4ccccc4)CCCC3)CC2)C1)S(C)(=O)=O (configuration not stated)	1.58	12.6		< 1	Non-toxic	

SMILES	EC50 (Chikungunya virus [1]; [4]) [µM]	IC50 (Polyprotein P1234) [µM]	inhibition (Chikungunya virus [2])	solubility kinetic [3] [µM]	Activity (MRC5)	EC50 (Chikungunya virus [1]; 181/25, MRC5, read-out: EC50) [µM]
CS(=O)(=O)N(Cc1ccccc1)CC1CCOC2(CCN(C(=O)C3(c4ccccc4)CCCC3)CC2)C1 (configuration not stated)	10		inactive	< 1	Non-toxic	
O=C(N1CCC2(CC1)CC(CN1CCCCS1(=O)=O)CCO2)C1(c2cc(F)cc(F)c2)CCCC1 (configuration not stated)	0.1	0.398		4 (≈ 2.04 µg/mL)	Non-toxic	
COc1cccc(C2(C(=O)N3CCC4(CC3)CC(CNS(=O)(=O)N(C)C)CCO4)CCCC2)c1 (configuration not stated)	6.31	> 39.8	80%		Non-toxic	
O=c1nc(NO)ccn1[C@@H]1O[C@H](CO)[C@@H](O)[C@H]1O [N-HYDROXYCYTIDINE]						1.2
CS(=O)(=O)NCC1CCOC2(CCN(C(=O)C3(c4cccc(Cl)c4)CCCC3)CC2)C1 (configuration not stated)	2.51	20			Non-toxic	
COc1ccc(C(=O)NCC2CCOC3(CCN(C(=O)C4(c5ccccc5)CCCC4)CC3)C2)cc1 (configuration not stated)	3.98	20		35 (≈ 17.2 µg/mL)	Non-toxic	
O=C(N1CCC2(CC1)CC(CNCC(F)(F)F)CCO2)C1(c2ccccc2)CCCC1 (configuration not stated)	12.6	> 39.8		170 (≈ 74.6 µg/mL)	Non-toxic	
CCCCCC(=O)NCC1CCOC2(CCN(C(=O)C3(c4ccccc4)CCCC3)CC2)C1 (configuration not stated)	2	6.31		60 (≈ 27.3 µg/mL)	Non-toxic	
O=C(CCCCl)NCC1CCOC2(CCN(C(=O)C3(c4ccccc4)CCCC3)CC2)C1 (configuration not stated)	0.316	2		170 (≈ 78.4 µg/mL)	Non-toxic	
O=C1CCC(=O)N1CC1CCOC2(CCN(C(=O)C3(c4ccccc4)CCCC3)CC2)C1 (configuration not stated)	1	1.26		160 (≈ 70.2 µg/mL)	Non-toxic	
O=C(N1CCC2(CC1)CC(CNCc1ccccc1)CCO2)C1(c2ccccc2)CCCC1 (configuration not stated)	10	> 39.8		180 (≈ 80.4 µg/mL)	Non-toxic	
O=C(N1CCC2(CC1)CC(CN1CCCS1(=O)=O)CCO2)C1(c2ccccc2)CCCC1 (configuration not stated)	0.398	1.58		> 220	Non-toxic	
O=C(NCC1CCOC2(CCN(C(=O)C3(c4ccccc4)CCCC3)CC2)C1)Nc1ccccc1 (configuration not stated)	1.26	15.8		10 (≈ 4.76 µg/mL)	Non-toxic	
COc1ccccc1NC(=O)NCC1CCOC2(CCN(C(=O)C3(c4ccccc4)CCCC3)CC2)C1 (configuration not stated)	3.98		inactive	< 10	Non-toxic	
CN(CC1CCOC2(CCN(C(=O)C3(c4ccccc4)CCCC3)CC2)C1)S(=O)(=O)CCCCl (configuration not stated)	0.398	1		50 (≈ 25.6 µg/mL)	Non-toxic	
CN(C)S(=O)(=O)NCC1CCOC2(CCN(C(=O)C3(c4ccccc4Cl)CCCC3)CC2)C1 (configuration not stated)	1.26	7.94			Non-toxic	
O=C(N1CCC2(CC1)CC(Nc1ccccc1)CCO2)C1(c2ccccc2)CCCC1 (configuration not stated)	5.01	15.8		20 (≈ 8.37 µg/mL)	Non-toxic	
CN(C)S(=O)(=O)NCC1CCOC2(CCN(C(=O)C3(c4cccc(C(F)(F)F)c4)CCCC3)CC2)C1 (configuration not stated)	100	> 39.8	40%		Non-toxic	

Source: ChEMBL document CHEMBL6178023 (J Med Chem, 2025)
